Test results reported in patent EP3910064A1, “PROCESS OF OBTAINING A PHLOROTANNIN-ENRICHED EXTRACT HAVING ANTI-ENZYMATIC ACTION FOR USE IN DERMATOLOGY” (Instituto Politécnico De Leiria, priority 2020, dated 2021).

Target: collagenase
Experiment: Collagenase inhibition (analytical kit)
Assay type: biochemical
Settings: confidence interval in parentheses
From the text: Table 2 - Inhibitory effect (IC50) of the different extracts obtained based on the interval of concentrations tested on the enzymes collagenase and elastase.

Compound: O=C(O[C@@H]1Cc2c(O)cc(O)cc2O[C@@H]1c1cc(O)c(O)c(O)c1)c1cc(O)c(O)c(O)c1 [Epigallocatechin gallate]
- IC50 Collagenase: 4.8 (4.10-5.50) µg/mL
